Where two headings read alike, the source gives them in different places.
Target: T1, AtHPPD (Arabidopsis thaliana, UniProt P93836)
T1 construct: gene HPD; recombinant enzyme supplied by Guangfu Yang research team; Fe(II) enzyme; PDB 1TFZ used for docking only
T1 sequence (P93836 1-445): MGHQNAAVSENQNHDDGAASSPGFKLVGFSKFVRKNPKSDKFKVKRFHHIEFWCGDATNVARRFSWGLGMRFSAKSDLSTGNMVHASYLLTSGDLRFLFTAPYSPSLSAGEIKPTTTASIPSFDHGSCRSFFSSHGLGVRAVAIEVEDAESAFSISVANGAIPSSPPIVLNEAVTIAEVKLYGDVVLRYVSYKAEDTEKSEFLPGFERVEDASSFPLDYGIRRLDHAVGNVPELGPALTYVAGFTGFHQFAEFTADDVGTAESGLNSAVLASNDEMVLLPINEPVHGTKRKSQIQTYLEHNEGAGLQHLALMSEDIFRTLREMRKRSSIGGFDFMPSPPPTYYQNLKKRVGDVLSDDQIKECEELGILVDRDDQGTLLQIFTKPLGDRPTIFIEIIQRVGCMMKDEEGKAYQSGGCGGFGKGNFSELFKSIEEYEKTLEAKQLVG
Experiment: HGD-coupled assay, maleylacetoacetate at […] nm
Assay type: biochemical

Row | SMILES | IC50 | IC50 (read-out: IC50)
1 | CS(=O)(=O)c1ccc(C(=O)C2C(=O)CCCC2=O)c([N+](=O)[O-])c1 [Control 1, mesotrione] | 204 nM | 
2 | Cc1cc(O)c(C(=O)/C=C/c2ccccc2)c(=O)o1 [compound 3881, 3-cinnamoyl-4-hydroxy-6-methyl-2H-pyran-2-one] |  | 2490 nM

— article PMC5807903, “Combination of Virtual Screening Protocol by in Silico toward the Discovery of Novel 4-Hydroxyphenylpyruvate Dioxygenase Inhibitors” (Frontiers in Chemistry, 2018)
